Holding throughout (assay type): cell-based
One experiment concerns CCRF-CEM. Description: NCI sixty human tumor cell line screen, Leukemia panel. Conditions: NCI protocol. The protocol:
(§1) The in vitro anticancer activity studies for these N-((1-benzyl-1H-1,2,3-triazol-4-yl)methyl) arylamide analogues were carried out at the National Cancer Institute, USA.
(§2) The N-((1-benzyl-1H-1,2,3-triazol-4-yl)methyl)arylamide analogues have been tested at NCI, USA, against sixty human tumor cell lines derived from nine cancer types (leukemia, non-small cell lung cancer, colon cancer, CNS cancer, melanoma cancer, ovarian cancer, renal cancer, prostate cancer and breast cancer). For these compounds results are expressed as growth inhibition (GI50) values as per NCI protocol.

A further experiment has as its system HL-60(TB). The experiment is described as above. The following applies: NCI protocol. How it is done: as §1, §2
The test system of the next experiment is K-562. Described as above. The following applies: K562, K-562, Leukemia, NCI protocol. How it is done: as §1, §2
For the next experiment, the system named is MOLT-4. The description is as above. Conditions: MOLT-4, Leukemia, NCI protocol. How it is done: as §1, §2
The subject of another experiment is RPMI-8226. Described as above. The following applies: RPMI-8226, Leukemia, NCI protocol. How it is done:
as §1, §2

The next experiment has as its system SR. Described as above. The following applies: NCI protocol. The protocol:
as §1, §2

In another experiment the test system is NCI-H23. Briefly: NCI sixty human tumor cell line screen, Non-small-cell-lung panel. Conditions: NCI protocol. The protocol:
as §1, §2

The test system of the next experiment is HCC-2998. Description: NCI sixty human tumor cell line screen, Colon panel. Conditions: HCC-2998, Colon, NCI protocol. How it is done: as §1, §2
A further experiment deals with HCT-15. The description is as above. The following applies: HCT-15, Colon, NCI protocol. How it is done:
as §1, §2

The next experiment concerns UACC-257. Briefly: NCI sixty human tumor cell line screen, Melanoma panel. The following applies: UACC-257, Melanoma, NCI protocol. The protocol:
as §1, §2

Another experiment relates to IGROV1. Description: NCI sixty human tumor cell line screen, Ovarian panel. The following applies: IGROV-1, NCI protocol. How it is done: as §1, §2
The next experiment relates to 786-0. Description: NCI sixty human tumor cell line screen, Renal panel. Conditions: 786-0, Renal, NCI protocol. How it is done:
as §1, §2

In another experiment the test system is A549. Description: IC50 of compounds and E7010 against A549 cell line. The text has this: (§3) In the present investigation, an attempt has been made, in view of the biological importance of both 2-anilino nicotinyl structure and 1,2,3-triazoles group. […] Introduction of triazole group on 2-anilino nicotinyl moiety resulted that there is enhancement of biological activity of representative compounds (1a, 1b, 1c, 1d, 1f, 1g, 1i, 1k, 6b and 6g) compare with E7010. Biological data of representative compounds has been provided in Table 1. • (Novel sulfonamides as potential, systemically active antitumor agents. Yoshino, H.; Ueda, N.; Niijima, J.; Sugumi, H.; Kotake, Y.; Koyanagi, N.; Yoshimatsu, K.; Asada, M.; Watanabe, T.; Nagasu, T. J. Med. Chem. 1992, 35, 2496-2497)

Another experiment has as its system HOP-92. Description: NCI sixty human tumor cell line screen, Non-small-cell-lung panel. Conditions: HOP-92, Non-small-cell-lung, NCI protocol. The protocol: as §1, §2
For the next experiment, the system named is NCI-H322M. The description is as above. The following applies: NCI protocol. The protocol:
as §1, §2

A further experiment has as its system MALME-3M. Briefly: NCI sixty human tumor cell line screen, Melanoma panel. The following applies: NCI protocol. The protocol: as §1, §2
In a further experiment the test system is OVCAR-5. Briefly: NCI sixty human tumor cell line screen, Ovarian panel. Conditions: OVCAR-5, Ovarian, NCI protocol. How it is done: as §1, §2
For a further experiment, the system named is MCF7. Briefly: NCI sixty human tumor cell line screen, Breast panel. Conditions: NCI protocol. How it is done:
as §1, §2

A further experiment relates to MCF-7. Description: IC50 of compounds and E7010 against MCF-7 cell line.
Description: as §3

Setting [1] is: Homo sapiens, A549, A549 cell line.
[2] abbreviates: Homo sapiens, MCF7, MCF-7 cell line.

The term GI50 denotes the concentration that inhibits growth by half. Read a high GI50 as less potent growth inhibition. As usually defined, the IC50 is the concentration at which inhibition is half-maximal.

For the molecule `O=C(NCc1cn(Cc2cccc(Oc3ccccc3)c2)nn1)c1cccnc1Nc1ccccc1` [Compound 1a, N-((1-(3-Phenoxybenzyl)-1H-1,2,3-triazol-4-yl)methyl)-2-(phenylamino)nicotinamide], the GI50 with CCRF-CEM worked out at 3.34 µM; in the experiment on HL-60(TB), 3.74 µM; in the experiment on K-562 it was 3.69 µM; in the experiment with MOLT-4 it was 3.74 µM; in the experiment with RPMI-8226 it was 3.61 µM; in the experiment on SR, 2.56 µM. The GI50 in the experiment with NCI-H23 was determined as 3.73 µM; in the experiment on HCC-2998, 3.7 µM; in the experiment with HCT-15 it was 3.81 µM; in the experiment with UACC-257, 1.42 µM; in the experiment with IGROV1, 30.7 µM; in the experiment with 786-0 it was 23.2 µM. The IC50 was 1.54 µM with A549 (A549 cell line) and 1.25 to 3.98 µM in the experiment on A549 (setting [1]).
`O=C(NCc1cn(Cc2cccc(Oc3ccccc3)c2)nn1)c1cccnc1Nc1ccc(F)cc1` [Compound 1b, 2-(4-Fluorophenylamino)-N-((1-(3-phenoxybenzyl)-1H-1,2,3-triazol4-yl)methyl)nicotinamide]: the GI50 in the experiment on HOP-92 amounted to 10.7 µM; in the experiment on NCI-H23, 29.9 µM; in the experiment on NCI-H322M, 5.29 µM; in the experiment with MALME-3M, 15.1 µM; in the experiment with UACC-257, 6.87 µM; in the experiment with IGROV1 it was 5.89 µM. In addition, the GI50 in the experiment on OVCAR-5 is 4.23 µM; in the experiment on 786-0 it was 5.59 µM. The IC50 is 1.69 µM with A549 (A549 cell line) and 1.25 to 3.98 µM in the experiment on A549 (setting [1]).
Take `COc1ccc(Nc2ncccc2C(=O)NCc2cn(Cc3cccc(Oc4ccccc4)c3)nn2)cc1` [Compound 1e, 2-(4-Methoxyphenylamino)-N-((1-(3-phenoxybenzyl)-1H-1,2,3-triazol-4-yl)methyl) nicotinamide]: the GI50 in the experiment with CCRF-CEM was found to be 3.8 µM; with HL-60(TB) it was 2.66 µM; in the experiment with K-562, 3.48 µM; in the experiment on MOLT-4 it was 2.91 µM; in the experiment on RPMI-8226, 4.84 µM; in the experiment with HOP-92 it was 5.67 µM. Further, the GI50 stood at 3.45 µM in the experiment on NCI-H23; 5.24 µM in the experiment on NCI-H322M; 2.53 µM in the experiment on HCC-2998; 3.93 µM in the experiment on HCT-15; 3.8 µM with MALME-3M; 4.82 µM in the experiment with UACC-257. Besides, the concentration for 50% growth inhibition (GI50) is at least 100 µM in the experiment with OVCAR-5 and 6.73 µM in the experiment with 786-0.
Turning to `COc1ccc(Nc2ncccc2C(=O)NCc2cn(Cc3cccc(Oc4ccccc4)c3)nn2)c(OC)c1` [Compound 1g, 2-(2,4-Dimethoxyphenylamino)-N-((1-(3-phenoxybenzyl)-1H-1,2,3-triazol-4-yl)methyl) nicotinamide], the GI50 with CCRF-CEM amounted to 1.2 µM; in the experiment on HL-60(TB), 2.21 µM; in the experiment with K-562, 0.75 µM; in the experiment on MOLT-4 it was 3.65 µM; in the experiment on RPMI-8226 it was 3.03 µM; with NCI-H23 it was 2.24 µM. Also, the GI50 with HCC-2998 stood at 3.33 µM; in the experiment on HCT-15, 2.89 µM; in the experiment on MALME-3M, 4.07 µM; with IGROV1 it was 5.96 µM; in the experiment with OVCAR-5 it was 8.34 µM; in the experiment on 786-0, 4.06 µM. In addition, in the experiment on MCF7, the GI50 was determined as 0.65 µM. In addition, the 50% inhibitory concentration (IC50) with A549 (A549 cell line) is 1.57 µM; with A549 (setting [1]) it was 1.25 to 3.98 µM; in the experiment with MCF-7 (setting [2]) it was 0.74 to 2.51 µM; in the experiment with MCF-7 (MCF-7 cell line), 0.74 µM.
As to `COc1cc(Nc2ncccc2C(=O)NCc2cn(Cc3cccc(Oc4ccccc4)c3)nn2)cc(OC)c1` [Compound 1i, 2-(3,5-Dimethoxyphenylamino)-N-((1-(3-phenoxybenzyl)-1H-1,2,3-triazol-4-yl)methyl) nicotinamide], the GI50 in the experiment on CCRF-CEM is 4.19 µM; in the experiment on HL-60(TB), 3.97 µM; with K-562, 5.05 µM; with MOLT-4, 4.85 µM; in the experiment on RPMI-8226, 5.25 µM; in the experiment with HOP-92, 4.67 µM. Besides, the GI50 in the experiment with NCI-H23 stood at 6.22 µM; in the experiment with NCI-H322M it was 6.15 µM; in the experiment with HCC-2998, 9.6 µM; with HCT-15, 3.89 µM; with MALME-3M, 5.81 µM; in the experiment on UACC-257 it was 4.86 µM. Also, the GI50 was at least 100 µM in the experiment on OVCAR-5 and 6.73 µM in the experiment with 786-0. For the same molecule, the half-maximal inhibitory concentration (IC50) is 1.93 µM with A549 (A549 cell line), 1.25 to 3.98 µM in the experiment on A549 (setting [1]), 0.74 to 2.51 µM in the experiment with MCF-7 (setting [2]) and 0.93 µM with MCF-7 (MCF-7 cell line).
Turning to `O=C(NCc1cn(Cc2cccc(Oc3ccccc3)c2)nn1)c1cccnc1NCc1ccc(Cl)cc1` [Compound 1k, 2-(4-Chlorobenzylamino)-N-((1-(3-phenoxybenzyl)-1H-1,2,3-triazol-4-yl)methyl) nicotinamide], the GI50 came out at 3.05 µM in the experiment with CCRF-CEM; 3.39 µM with HL-60(TB); 3.24 µM in the experiment with K-562; 3.28 µM with MOLT-4; 3.12 µM in the experiment on RPMI-8226; 3.31 µM with SR. Besides, the GI50 in the experiment on HOP-92 came out at 4.23 µM; in the experiment with HCC-2998, 4.17 µM; in the experiment on HCT-15, 3.39 µM; in the experiment on MALME-3M it was 5.69 µM; with UACC-257, 3.83 µM; in the experiment on IGROV1, 9.03 µM. The figures for the GI50 with OVCAR-5 and in the experiment on MCF7 were 5.62 µM and 2.99 µM, respectively. The concentration for half-maximal inhibition (IC50) was 1.79 µM with A549 (A549 cell line) and 1.25 to 3.98 µM in the experiment with A549 (setting [1]).

Values taken from US9309225B2, “N-((1-benzyl-1H-1,2,3-triazol-4-yl)methyl)arylamide compounds as potential anticancer agents and a process for the preparation thereof” (COUNCIL OF SCIENTIFIC & INDUSTRIAL RESEARCH, priority 2013, dated 2016).
